Measurements: patent US20090075951A1, “Methods and Reagents for the Treatment of Inflammatory Disorders” (CombinatoRx, Inc., priority 2003, published 2009)
Where “and” joins values, the source holds several entries; their conditions need not be identical. Equal values may be shown once. Read-outs that look alike come from different tables or passages of the source.

What was measured:
[1] = tested on: TNFα secretion from LPS stimulated white blood cells from human buffy coat; assay: TNFα secretion assay, LPS stimulation; conditions: for percent inhibition of TNFα secretion: LPS
Protocol: (§1) Various concentrations of each test compound were added at the time of stimulation. […] After the plate was washed with 0.1% Tween 20/PBS, an HRP-luminescent substrate was added to each well and light intensity measured using a LJL Analyst plate luminometer.

cytokine secretion = assay: Suppression of cytokine secretion in vitro by individual tricyclic compounds
Protocol: Individual tricyclic compounds were tested for their ability to suppress cytokine secretion in vitro.

[2] = tested on: TNFα secretion from PMA/ionomycin stimulated white blood cells from human buffy coat; assay: TNFα secretion assay, PMA/ionomycin stimulation; conditions: for inhibition at 0.01 µM: read-out: TNFα PI percent inhibition, 0.01 μM
Protocol: as §1

[3] = Homo sapiens, read-out: TNFα LPS percent inhibition, […]
[4] = read-out: IL-1β LPS percent inhibition
[5] = read-out: IL-2 PI percent inhibition
[6] = read-out: TNFα PI percent inhibition, […]
[7] = Amoxapine μM: 32.00, 16.00, 8.00, 4.00, 2.00, 1.00, 0.50, 0.25, 0.13, 0.06, 0.03, 0.02
[8] = Clomipramine μM: 57.00, 28.50, 14.25, 7.13, 3.56, 1.78, 0.89, 0.45, 0.22, 0.11, 0.06, 0.03
[9] = Nortriptyline μM by row r6-r17: 67.00, 33.50, 16.75, 8.38, 4.19, 2.09, 1.05, 0.52, 0.26, 0.13, 0.07, 0.03
[10] = Protriptyline μM by row r6-r17: 67.00, 33.50, 16.75, 8.38, 4.19, 2.09, 1.05, 0.52, 0.26, 0.13, 0.07, 0.03

Structure (SMILES): CN(C)CCC=C1c2ccccc2CCc2ccccc21 [Amitriptyline, amitriptyline]
- inhibition at 0.03 µM ([1]; Homo sapiens, read-out: TNFα LPS percent inhibition, 0.03 μM): 0%
- inhibition at 0.06 µM ([1]; Homo sapiens, read-out: TNFα LPS percent inhibition, 0.06 μM): 0%
- inhibition at 0.5 µM ([1]; Homo sapiens, read-out: TNFα LPS percent inhibition, 0.50 μM): 0%
- inhibition at 1 µM ([1]; Homo sapiens, read-out: TNFα LPS percent inhibition, 1.00 μM): 0%
- inhibition at 2 µM ([1]; Homo sapiens, read-out: TNFα LPS percent inhibition, 2.00 μM): 0%
- inhibition at 4 µM ([1]; Homo sapiens, read-out: TNFα LPS percent inhibition, 4.00 μM): 0%
- inhibition at 8 µM ([1]; Homo sapiens, read-out: TNFα LPS percent inhibition, 8.00 μM): 0%
- inhibition at 16 µM [1, 3]: 0%
- inhibition at 32 µM [1, 3]: 18%
- inhibition at 64 µM [1, 3]: 45%
- inhibition at 0.03 µM (cytokine secretion; [4]): 0%
- inhibition at 0.06 µM (cytokine secretion; [4]): 0%
- inhibition at 0.5 µM (cytokine secretion; [4]): 0%
- inhibition at 1 µM (cytokine secretion; [4]): 0%
- inhibition at 2 µM (cytokine secretion; [4]): 0%
- inhibition at 4 µM (cytokine secretion; [4]): 11%
- inhibition at 8 µM (cytokine secretion; [4]): 7%
- inhibition at 16 µM (cytokine secretion; [4]): 0%
- inhibition at 32 µM (cytokine secretion; [4]): 0%
- inhibition at 64 µM (cytokine secretion; [4]): 0%
- inhibition at 0.03 µM (cytokine secretion; [5]): 0%
- inhibition at 0.06 µM (cytokine secretion; [5]): 2%
- inhibition at 0.5 µM (cytokine secretion; [5]): 0%
- inhibition at 1 µM (cytokine secretion; [5]): 0%
- inhibition at 2 µM (cytokine secretion; [5]): 0%
- inhibition at 4 µM (cytokine secretion; [5]): 4%
- inhibition at 8 µM (cytokine secretion; [5]): 7%
- inhibition at 16 µM (cytokine secretion; [5]): 33%
- inhibition at 32 µM (cytokine secretion; [5]): 62%
- inhibition at 64 µM (cytokine secretion; [5]): 82%
- inhibition at 0.03 µM ([2]; read-out: TNFα PI percent inhibition, 0.03 μM): 0%
- inhibition at 0.06 µM ([2]; read-out: TNFα PI percent inhibition, 0.06 μM): 0%
- inhibition at 0.5 µM ([2]; read-out: TNFα PI percent inhibition, 0.50 μM): 0%
- inhibition at 1 µM ([2]; read-out: TNFα PI percent inhibition, 1.00 μM): 0%
- inhibition at 2 µM ([2]; read-out: TNFα PI percent inhibition, 2.00 μM): 0%
- inhibition at 4 µM ([2]; read-out: TNFα PI percent inhibition, 4.00 μM): 5%
- inhibition at 8 µM ([2]; read-out: TNFα PI percent inhibition, 8.00 μM): 21%
- inhibition at 16 µM [2, 6]: 35%
- inhibition at 32 µM [2, 6]: 66%
- inhibition at 64 µM [2, 6]: 81%

Structure (SMILES): Clc1ccc2c(c1)C(N1CCNCC1)=Nc1ccccc1O2 [Amoxapine, amoxapine]
- percent inhibition of TNFα secretion ([1]; Prednisolone 0.5 μM, Amoxapine μM r5-r13: 0,0.25,0.5,1,2,4,8,16,32): 68.1%
- IL-1β LPS, percent inhibition relative to untreated controls (cytokine secretion; [7]): 5% and 0%
- IL-2 PI, percent inhibition relative to untreated controls (cytokine secretion; [7]): 0%
- TNFα LPS, percent inhibition relative to untreated controls (cytokine secretion; [7]): 0%
- TNFα PI, percent inhibition relative to untreated controls (cytokine secretion; [7]): 4% and 0%

Structure (SMILES): CN(C)CCCN1c2ccccc2CCc2ccc(Cl)cc21 [Clomipramine, clomipramine]
- percent inhibition of TNFα secretion ([1]; Prednisolone 1 μM, Clomipramine μM r5-r13: 0,0.45,0.89,1.8,3.6,7.1,14,28,57): 69.3%
- IL-1β LPS, percent inhibition relative to untreated controls (cytokine secretion; [8]): 3% and 0%
- IL-2 PI, percent inhibition relative to untreated controls (cytokine secretion; [8]): 5% and 0%
- TNFα LPS, percent inhibition relative to untreated controls (cytokine secretion; [8]): 0%
- TNFα PI, percent inhibition relative to untreated controls (cytokine secretion; [8]): 0%

Structure (SMILES): CN1CCN(C2=Nc3cc(F)ccc3Cc3ccccc32)CC1 [Fluperlapine, fluperlapine]
- inhibition at 0.01 µM (cytokine secretion; [5]): 6%
- inhibition at 0.04 µM (cytokine secretion; [5]): 8%
- inhibition at 0.4 µM (cytokine secretion; [5]): 7%
- inhibition at 32 µM (cytokine secretion; [5]): 1%
- inhibition at 0.01 µM [2]: 0%
- inhibition at 0.04 µM ([2]; read-out: TNFα PI percent inhibition, 0.04 μM): 0%
- inhibition at 0.4 µM ([2]; read-out: TNFα PI percent inhibition, 0.40 μM): 0%
- inhibition at 32 µM [2, 6]: 25%

Structure (SMILES): Clc1ccc2c(c1)N=C(N1CCNCC1)c1ccccc1N2 [Norclozapine, norclozapine]
- percent inhibition of TNFα secretion ([1]; Prednisolone 0 μM, Norclozapine μM r5-r13: 0,0.21,0.41,0.83,1.7,3.3,6.6,13,27): −17%

Structure (SMILES): CNCCC=C1c2ccccc2CCc2ccccc21 [Nortriptyline, nortriptyline]
- IL-1β LPS, percent inhibition relative to untreated controls (cytokine secretion; [9]): 3% and 0%
- IL-2 PI, percent inhibition relative to untreated controls (cytokine secretion; [9]): 0%
- TNFα LPS, percent inhibition relative to untreated controls (cytokine secretion; [9]): 1% and 0%
- TNFα PI, percent inhibition relative to untreated controls (cytokine secretion; [9]): 2%

Structure (SMILES): CNCCCC1c2ccccc2C=Cc2ccccc21 [Protriptyline, protriptyline]
- IL-1β LPS, percent inhibition relative to untreated controls (cytokine secretion; [10]): 0%
- IL-2 PI, percent inhibition relative to untreated controls (cytokine secretion; [10]): 0%
- TNFα LPS, percent inhibition relative to untreated controls (cytokine secretion; [10]): 2% and 0%
- TNFα PI, percent inhibition relative to untreated controls (cytokine secretion; [10]): 0%

Structure (SMILES): OCCOCCN1CCN(C2=Nc3ccccc3Sc3ccccc32)CC1 [Quetiapine fumurate]
- inhibition at 0.01 µM (cytokine secretion; [5]): 0%
- inhibition at 0.02 µM (cytokine secretion; [5]): 0%
- inhibition at 0.05 µM (cytokine secretion; [5]): 0%
- inhibition at 11 µM (cytokine secretion; [5]): 0%
- inhibition at 0.01 µM [2]: 7%
- inhibition at 0.02 µM ([2]; read-out: TNFα PI percent inhibition, 0.02 μM): 0%
- inhibition at 0.05 µM ([2]; read-out: TNFα PI percent inhibition, 0.05 μM): 0%
- inhibition at 11 µM [2, 6]: 13%

Structure (SMILES): C[C@]12C=CC(=O)C=C1CC[C@H]1[C@@H]3C[C@@H](O)[C@](O)(C(=O)CO)[C@@]3(C)C[C@H](O)[C@@]12F [Triamcinolone, triamcinolone]
- inhibition at […] ([2]; read-out: inhibition of TNFα secretion, Triamcinolone 38 nM, Desipramine nM: 0, 50, 200, 799, 3197, 13000): 16%
- inhibition at […] ([2]; read-out: inhibition of TNFα secretion, Triamcinolone 38 nM, Imipramine nM: 0, 99, 394, 1578, 6311, 25000): 16.1%
- inhibition at […] ([2]; read-out: inhibition of TNFα secretion, Triamcinolone 38 nM, Nortriptyline nM: 0, 52, 208, 834, 3336, 13000): 7.21%
- inhibition at 2.434 µM ([2]; read-out: inhibition of TNFα secretion, Triamcinolone 2434 nM, Desipramine nM: 0, 50, 200, 799, 3197, 13000): 47.1%
- inhibition at 2.434 µM ([2]; read-out: inhibition of TNFα secretion, Triamcinolone 2434 nM, Imipramine nM: 0, 99, 394, 1578, 6311, 25000): 47.2%
- inhibition at 2.434 µM ([2]; read-out: inhibition of TNFα secretion, Triamcinolone 2434 nM, Nortriptyline nM: 0, 52, 208, 834, 3336, 13000): 33.7%
- inhibition at 2.434 µM ([2]; read-out: inhibition of TNFα secretion, Triamcinolone 2434 nM, Protriptyline nM: 0, 52, 208, 834, 3336, 13000): 48.5%
- inhibition at […] ([2]; read-out: percent inhibition of TNFα secretion, Triamcinolone 38 nM, Amitriptyline nM: 0, 50, 199, 796, 3186, 13000): 10.8%
- inhibition at […] ([2]; read-out: percent inhibition of TNFα secretion, Triamcinolone 38 nM, Amoxapine nM: 0, 12, 50, 199, 797, 3187): 3.52%
- inhibition at […] ([2]; read-out: percent inhibition of TNFα secretion, Triamcinolone 38 nM, Clomipramine nM: 0, 45, 178, 712, 2848, 11000): 12.5%
- inhibition at 2.434 µM ([2]; read-out: percent inhibition of TNFα secretion, Triamcinolone 2434 nM, Amitriptyline nM: 0, 50, 199, 796, 3186, 13000): 43.8%
- inhibition at 2.434 µM ([2]; read-out: percent inhibition of TNFα secretion, Triamcinolone 2434 nM, Amoxapine nM: 0, 12, 50, 199, 797, 3187): 36.1%
- inhibition at 2.434 µM ([2]; read-out: percent inhibition of TNFα secretion, Triamcinolone 2434 nM, Clomipramine nM: 0, 45, 178, 712, 2848, 11000): 46.9%
